Experimental data: PubChem BioAssay AID1343 (Sanford-Burnham Center for Chemical Genomics, 2008)
Calls of active or inactive are those of the source.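 How the source made its calls: active means survival of 63% or more, 10 points above the level seen with tunicamycin given alone; inactive means the rest.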

Tested on: CSM14.1 tunicamycin-induced death, ATP luminescence, 48 h
Assay: rescue from tunicamycin-induced cell death, late-stage follow-up, mechanism study for ER stress death inhibitor project, undifferentiated CSM14.1, ATP content (AID 1343)
Settings: at 25 µM; hits give high values

| Compound | survival |
| --- | --- |
| CCOc1cccc(C2Nc3ccccc3NC3=C2C(=O)CC(c2ccc(OC)cc2)C3)c1 (stereo unspecified) | 55% (inactive) |
| CCCOc1ccc(C2Nc3ccccc3NC3=C2C(=O)CC(c2ccc(OC)c(OC)c2)C3)cc1 (stereo unspecified) | 74% |
| CSc1ccc(C2Nc3ccccc3NC3=C2C(=O)CC(c2ccccc2)C3)cc1 (stereo unspecified) | 59% (inactive) |
| COc1ccc(C2CC(=O)C3=C(C2)Nc2ccccc2NC3c2ccccc2C(F)(F)F)cc1OC (stereo unspecified) | 60% (inactive) |
| COc1ccc(C2CC(=O)C3=C(C2)Nc2ccccc2NC3c2cccc(Br)c2)cc1OC (stereo unspecified) | 64% |
| COc1ccc(C2CC(=O)C3=C(C2)Nc2ccccc2NC3c2cccc(Oc3ccccc3)c2)cc1OC (stereo unspecified) | 63% |
| COc1ccc(C2CC(=O)C3=C(C2)Nc2ccccc2NC3c2cc(C)ccc2C)cc1 (stereo unspecified) | 57% (inactive) |
| O=C1CC(c2ccccc2)CC2=C1C(c1c(F)cccc1Cl)Nc1ccccc1N2 (stereo unspecified) | 52% (inactive) |
| CCOc1cc(C2Nc3ccccc3NC3=C2C(=O)CC(c2ccc(OC)cc2)C3)cc(Cl)c1O (stereo unspecified) | 46% (inactive) |
| COc1ccc(C2CC(=O)C3=C(C2)Nc2ccccc2NC3c2cccc(C(F)(F)F)c2)cc1OC (stereo unspecified) | 65% |
| CC1(C)CC(=O)C2=C(C1)Nc1ccccc1NC2c1ccc(-c2ccccc2)cc1 (stereo unspecified) | 77% |
